The values below come from ChEMBL document CHEMBL1132731, “Synthesis and antibacterial activities of novel C(3)-aminopyrimidinyl substituted cephalosporins including against respiratory tract pathogens” (2000).

Common to all, as to format: functional
Experiment [1] in a line: Minimal inhibitory concentration against Moraxella catarrhalis 25240.
Experiment [2] deals with Staphylococcus aureus. As to the kind of experiment: Minimal inhibitory concentration against methicillin resistant Staphylococcus aureus 77.
Experiment [3] in a line: Minimal inhibitory concentration against Haemophilus influenza HIN003, beta lactamase producing resistant strain. The settings on record: Haemophilus influenzae.
For a further experiment, the system named is Klebsiella pneumoniae. As to the kind of experiment: Minimal inhibitory concentration against Klebsiella pneumonia 2011E.
Experiment [4] has as its system Staphylococcus aureus. As to the kind of experiment: Minimal inhibitory concentration against methicillin susceptible Staphylococcus aureus giorgio.
The subject of another experiment is Streptococcus pneumoniae. As to the kind of experiment: Minimal inhibitory concentration against Streptococcus pneumonia PN010, penicillin resistant.
The nature of experiment [5]: Minimal inhibitory concentration against Enterococcus faecalis 29212.
Experiment [6] is described as follows: Minimal inhibitory concentration against Proteus vulgaris 6059.
A further experiment deals with Escherichia coli. As to the kind of experiment: Minimal inhibitory concentration against Escherichia coli 3190Y.

≈ marks a conversion by molar mass, not a printed value.

As for `Nc1nc(/C(=N/O)C(=O)NC2C(=O)N3C(C(=O)O)=C(SCSc4nc(O)nc(N)c4N)CSC23)c(Cl)s1` (stereo not given), the MIC in [1] amounted to 0.13 µg/mL (≈ 0.214 µM); against Staphylococcus aureus [2] it was 4 µg/mL (≈ 6.6 µM); in experiment [3] it was 0.016 µg/mL (≈ 0.0264 µM); with Klebsiella pneumoniae, 1 µg/mL (≈ 1.65 µM); against Staphylococcus aureus [4] it was 0.5 µg/mL (≈ 0.825 µM); against Streptococcus pneumoniae, 2 µg/mL (≈ 3.3 µM). In addition, the figures for the MIC (in experiment [5]; in experiment [6]; against Escherichia coli) were 4 µg/mL (≈ 6.6 µM), 0.25 µg/mL (≈ 0.412 µM) and 0.25 µg/mL (≈ 0.412 µM), respectively.
Take `Nc1cc(SCSC2=C(C(=O)O)N3C(=O)C(NC(=O)/C(=N\O)c4nc(N)sc4Cl)C3SC2)nc(N)n1` (stereo not given): the MIC in experiment [1] worked out at 0.13 µg/mL (≈ 0.22 µM); in the experiment with Staphylococcus aureus [2], 1 µg/mL (≈ 1.69 µM); in [3] it was 0.5 µg/mL (≈ 0.847 µM); with Klebsiella pneumoniae, 1 µg/mL (≈ 1.69 µM); in the experiment on Staphylococcus aureus [4], 0.13 µg/mL (≈ 0.22 µM); against Streptococcus pneumoniae, 0.25 µg/mL (≈ 0.424 µM). Also, the MIC in experiment [5] amounted to 1 µg/mL (≈ 1.69 µM); in experiment [6] it was 0.25 µg/mL (≈ 0.424 µM); in the experiment on Escherichia coli, 0.25 µg/mL (≈ 0.424 µM).
For the molecule `Nc1cc(SCSC2=C(C(=O)O)N3C(=O)C(NC(=O)/C(=N\O)c4csc(N)n4)C3SC2)nc(N)n1` (stereo not given), the MIC was 2 µg/mL (≈ 3.6 µM) in experiment [1]; 1 µg/mL (≈ 1.8 µM) in the experiment with Staphylococcus aureus [2]; 0.5 µg/mL (≈ 0.9 µM) in experiment [3]; 0.5 µg/mL (≈ 0.9 µM) in the experiment with Klebsiella pneumoniae; 0.13 µg/mL (≈ 0.234 µM) in the experiment on Staphylococcus aureus [4]; 0.5 µg/mL (≈ 0.9 µM) with Streptococcus pneumoniae. Also, the values for the MIC (in [5]; in [6]; in the experiment on Escherichia coli) were 1 µg/mL (≈ 1.8 µM), 0.031 µg/mL (≈ 0.0558 µM) and 0.031 µg/mL (≈ 0.0558 µM), respectively.
Consider `Nc1nc(O)cc(SCSC2=C(C(=O)O)N3C(=O)C(NC(=O)/C(=N\O)c4nc(N)sc4Cl)C3SC2)n1` (stereo not given), for which the MIC in experiment [1] was 0.063 µg/mL (≈ 0.107 µM); in the experiment on Staphylococcus aureus [2], 1 µg/mL (≈ 1.69 µM); in [3], 0.031 µg/mL (≈ 0.0524 µM); with Klebsiella pneumoniae, 2 µg/mL (≈ 3.38 µM); in the experiment with Staphylococcus aureus [4], 0.13 µg/mL (≈ 0.22 µM); with Streptococcus pneumoniae, 0.5 µg/mL (≈ 0.846 µM). Besides, the MIC was found to be 1 µg/mL (≈ 1.69 µM) in experiment [5], 0.13 µg/mL (≈ 0.22 µM) in experiment [6] and 0.25 µg/mL (≈ 0.423 µM) against Escherichia coli.
Take `CCO/N=C(\C(=O)NC1C(=O)N2C(C(=O)O)=C(Sc3cc(N)nc(N)n3)CSC12)c1nsc(N)n1` (stereo not given): the MIC was < 0.008 µg/mL in [1]; 4 µg/mL (≈ 7.43 µM) against Staphylococcus aureus [2]; 0.13 µg/mL (≈ 0.241 µM) in [3]; 2 µg/mL (≈ 3.71 µM) in the experiment with Klebsiella pneumoniae; 1 µg/mL (≈ 1.86 µM) against Staphylococcus aureus [4]; 0.25 µg/mL (≈ 0.464 µM) in the experiment with Streptococcus pneumoniae. The MIC in experiment [5] turned out to be 64 µg/mL (≈ 119 µM); in [6] it was 0.063 µg/mL (≈ 0.117 µM); in the experiment on Escherichia coli, 0.063 µg/mL (≈ 0.117 µM).
Consider `Nc1nc(O)cc(SC2=C(C(=O)O)N3C(=O)C(NC(=O)/C(=N\O)c4nc(N)sc4Cl)C3SC2)n1` (stereo not given), for which the MIC against Staphylococcus aureus [2] came to 2 µg/mL (≈ 3.67 µM); in experiment [3] it was 0.016 µg/mL (≈ 0.0294 µM); against Klebsiella pneumoniae, 1 µg/mL (≈ 1.83 µM); against Staphylococcus aureus [4] it was 0.25 µg/mL (≈ 0.459 µM); in the experiment on Streptococcus pneumoniae it was 0.5 µg/mL (≈ 0.917 µM); in [5] it was 8 µg/mL (≈ 14.7 µM). In addition, the MIC (in experiment [6]; in the experiment on Escherichia coli) was 0.063 µg/mL (≈ 0.116 µM) each time.
Regarding `Nc1cc(SC2=C(C(=O)O)N3C(=O)C(NC(=O)/C(=N\O)c4csc(N)n4)C3SC2)nc(N)n1` (stereo not given), the MIC in experiment [1] is < 0.008 µg/mL; in the experiment on Staphylococcus aureus [2], 2 µg/mL (≈ 3.92 µM); in experiment [3], 0.13 µg/mL (≈ 0.255 µM); in the experiment with Klebsiella pneumoniae it was 1 µg/mL (≈ 1.96 µM); in the experiment on Staphylococcus aureus [4], 0.25 µg/mL (≈ 0.491 µM); against Streptococcus pneumoniae, 0.5 µg/mL (≈ 0.981 µM). Besides, the MIC in [5] stood at 8 µg/mL (≈ 15.7 µM); in experiment [6], 0.031 µg/mL (≈ 0.0608 µM); in the experiment with Escherichia coli it was 0.031 µg/mL (≈ 0.0608 µM).
Turning to `Nc1cc(N)nc(SCSC2=C(C(=O)O)N3C(=O)C(NC(=O)/C(=N\O)c4csc(N)n4)C3SC2)n1` (stereo not given), the MIC turned out to be 1 µg/mL (≈ 1.8 µM) in [1]; 1 µg/mL (≈ 1.8 µM) against Staphylococcus aureus [2]; 1 µg/mL (≈ 1.8 µM) in [3]; 0.5 µg/mL (≈ 0.9 µM) with Klebsiella pneumoniae; 0.13 µg/mL (≈ 0.234 µM) against Staphylococcus aureus [4]; 1 µg/mL (≈ 1.8 µM) in the experiment on Streptococcus pneumoniae. The MIC stood at 4 µg/mL (≈ 7.2 µM) in experiment [5], 0.031 µg/mL (≈ 0.0558 µM) in experiment [6] and 0.063 µg/mL (≈ 0.113 µM) in the experiment with Escherichia coli.
For `C=CC1=C(C(=O)O)N2C(=O)[C@@H](NC(=O)/C(=N\O)c3csc(N)n3)[C@H]2SC1` [CEFDINIR], the MIC in experiment [1] turned out to be 0.5 µg/mL (≈ 1.26 µM); in the experiment with Staphylococcus aureus [2], 4 µg/mL (≈ 10.1 µM); in experiment [3], 0.5 µg/mL (≈ 1.26 µM); against Klebsiella pneumoniae, 0.13 µg/mL (≈ 0.329 µM); in the experiment on Staphylococcus aureus [4] it was 0.063 µg/mL (≈ 0.159 µM); against Streptococcus pneumoniae, 4 µg/mL (≈ 10.1 µM). Also, the MIC in experiment [5] was found to be 8 µg/mL (≈ 20.2 µM); in experiment [6], 0.031 µg/mL (≈ 0.0784 µM); against Escherichia coli it was 0.031 µg/mL (≈ 0.0784 µM).
